Legend:
CYP2C19 = target: T1, CYP2C19 (Homo sapiens, UniProt P33261); experiment: Cytochrome P450 isozyme inhibitory activity test, CYP2C19; type: in vitro ADME; settings: heading: Cytochrome P450 isozyme IC50, CYP2C19; human liver microsome
T1 construct: from tissue; host or cells: human liver microsomes
Experimental: Determination of the inhibitory activity of the test compound on different human cytochrome P450 isozymes.
The test compound, standard inhibitor (100×final concentration), and a mixed substrate working solution were prepared; the microsome frozen in −80° C. refrigerator was thawed. 2 μL of the test compound and standard inhibitor solution was added to the corresponding wells, and at the same time 2 μL of the corresponding solvent was added to the non-inhibitor control wells (NIC) and blank control wells (Blank) wells; then 20 μL of mixed substrate solution was added to the corresponding wells, except for the Blank wells (20 μL of PB was added to the Blank wells); a human liver microsome solution was prepared (put back into the refrigerator immediately after using and marking the date), and then 158 μL of the human liver microsome solution was added to all wells; the above sample plate was placed in a 37° C. water bath for pre-incubation, then the coenzyme factor (NADPH) solution was prepared; 10 minutes later, 20 μL of the NADPH solution was added to all wells, and the sample plate was shaken well, placed in a 37° C. water bath and incubated for 10 minutes; at the corresponding time point, 400 μL of cold acetonitrile solution (internal standard: 200 ng/mL tolbutamide and labetalol) was added to terminate the reaction; the sample plate was evenly mixed, centrifuged at 4000 rpm for 20 minutes to precipitate proteins; 200 μL of the supernatant was added to 100 μL of water, shook well, and tested by LC/MS/MS.

[1] = In vivo pharmacokinetics in mice after single administration; design: species or system CD-1 mice
Experimental: Male CD-1 mice were used as test animals, the concentration of the compound in blood was determined after single administration to evaluate the pharmacokinetic behavior.
CD-1 mice (male, 20-40 g, 6-9 weeks, Shanghai Sippr-Bk Laboratory Animal Co., Ltd.)
The pharmacokinetic characteristics of the test compound in rodents after intravenous injection and oral administration were tested by standard protocols, in the experiment, the test compound was prepared into a clear solution or homogeneous suspension, and administered to the mice by single intravenous injection and oral administration. […] The plasma sample was added to acetonitrile solution containing the internal standard with a volume 20 times that of the plasma sample to precipitate proteins, and then centrifuged; the supernatant was separated, and water with a volume twice that of the supernatant was added to the supernatant, which was then centrifuged again; the supernatant was collected for analysis; LC-MS/MS analysis method was used to quantitatively analyze the blood drug concentration, and Phoenix WinNonlin software (Pharsight, USA) was used to calculate the pharmacokinetic parameters, such as peak concentration, time to peak concentration, clearance rate, half-life, area under the concentration-time curve, bioavailability, etc. […]

[2] = In vivo pharmacokinetics in rats after single administration; settings: male, Sprague-Dawley, rat, plasma, 10 mg/kg, 10 mpk oral administration
Experimental: Male SD rats were used as test animals, and the concentration of the compound in blood was determined after single administration to evaluate the pharmacokinetic behavior.
Sprague Dawley rats (male, 200-300 g, 7-9 weeks, Shanghai Charles River Laboratory Animal Co., Ltd.)
The pharmacokinetic characteristics of the test compound in rodents after intravenous injection and oral administration were tested by standard protocols, in the experiment, the test compound was prepared into a clear solution or homogeneous suspension, and administered to the rats by single intravenous injection and oral administration. In the intravenous injection group, the menstruum was a certain proportion of ethanol and physiological saline solution or a certain proportion of dimethyl sulfoxide in HP-β cyclodextrin solution (pH was adjusted to 3-4), the mixture was vortexed and stirred to prepare 2 mg/mL or 1 mg/mL clear solution, then filtered with microporous membrane for later use; in the oral administration group, the menstruum was a certain proportion of sodium carboxymethyl cellulose solution or a certain proportion of dimethyl sulfoxide in HP-0 cyclodextrin solution (pH was adjusted to about 4), after the test compound was mixed with the solvent, the mixture was vortexed and stirred to prepare 2 mg/mL or 1 mg/mL homogeneous suspension or clear solution for later use. After 2 mg/kg intravenous administration or 10 mg/kg oral administration to rats, a certain amount of whole blood samples were collected, centrifuged at 3000 g for 15 minutes, the supernatant was separated to give the plasma samples; then an acetonitrile solution containing internal standard with a volume 3 times that of the plasma sample was added to precipitate proteins, and then centrifuged; the supernatant was separated, and water with a volume twice that of the supernatant was added to the supernatant, which was then centrifuged again; the supernatant was collected for analysis; LC-MS/MS analysis method was used to quantitatively analyze the blood drug concentration, and Phoenix WinNonlin software (Pharsight, USA) was used to calculate the pharmacokinetic parameters, such as peak concentration, time to peak concentration, clearance rate, half-life, area under the concentration-time curve, bioavailability, etc.
Among them, C0 is the initial concentration, T1/2 is the elimination half-life, Vdss is the steady-state apparent volume of distribution, Cl is the total clearance rate, AUC0-inf is the area under the plasma drug concentration-time curve from time 0 to infinity, Cmax is the peak concentration, Tmax is the time to peak concentration.

T1 sequence (P33261 whole entry): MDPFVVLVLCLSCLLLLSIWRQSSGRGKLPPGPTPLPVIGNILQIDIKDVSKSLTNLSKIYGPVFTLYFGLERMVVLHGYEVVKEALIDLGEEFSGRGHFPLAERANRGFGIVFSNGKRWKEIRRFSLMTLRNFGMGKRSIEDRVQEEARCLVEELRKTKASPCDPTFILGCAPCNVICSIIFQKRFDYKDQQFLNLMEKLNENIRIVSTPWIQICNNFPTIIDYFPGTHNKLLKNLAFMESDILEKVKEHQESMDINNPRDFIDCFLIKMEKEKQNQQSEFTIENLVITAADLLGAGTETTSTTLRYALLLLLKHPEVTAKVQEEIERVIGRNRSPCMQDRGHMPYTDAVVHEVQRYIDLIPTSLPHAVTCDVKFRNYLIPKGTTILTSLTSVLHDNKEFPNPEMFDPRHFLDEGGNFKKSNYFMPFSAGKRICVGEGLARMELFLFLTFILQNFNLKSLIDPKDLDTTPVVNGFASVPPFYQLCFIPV

IC50 (CYP2C19): > 50 µM
AUC(0-inf) [2]: 3.24 µM·h
Cmax [2]: 1790 nM
Tmax [2]: 0.63 h
bioavailability [2]: 24.8%
half-life [2]: 1.6 h
SMILES: COCCN1C[C@@H](n2ccc(F)c2)[C@H](NC(=O)Nc2c(C)c(-c3cnc(C4(F)COC4)nc3)nn2-c2ccccc2)C1 [Compound 7]
pharmacokinetic properties and oral bioavailability (in words) [1]: good pharmacokinetic properties and oral bioavailability

From patent US11932652B2, “Pyrrolidinyl urea derivatives and application thereof in TrkA-related diseases” (ZHANGZHOU PIEN TZE HUANG PHARMACEUTICAL CO., LTD., priority 2018, dated 2024)
